# Source: patent US9212130B2, “Heterocyclic derivative and pharmaceutical composition comprising the same” (SHIONOGI & CO., LTD., priority 2010, dated 2015)
# Molecular target: human P2X3 receptor (Homo sapiens (Human), UniProt P56373)
# Assay: Evaluation of human P2X3 receptor inhibitory activity (ATP-induced Fluo-3 fluorescence, FDSS 3000)
# Format: cell-based
# Details: C6BU-1 cell transfected with human P2X3 receptor gene
# Procedure: The plate was placed in High-Throughput Screening System FDSS 3000 (Hamamatsu Photonics K.K.). […] Five minutes after, 50 nM ATP solution (50 μL) prepared by dilution with the dilution buffer was dispensed through the built-in automatic dispenser, and the measurement of fluorescence intensity was continued for 3 min. For each well, the specific maximum fluorescence intensity was calculated as the ratio of the maximum fluorescence intensity after addition of the ATP solution to the fluorescence intensity at the starting of the measurement. […] FDSS software (Hamamatsu Photonics K.K.) was used for calculation of the specific maximum fluorescence intensity. IC50 was calculated using Microsoft Excel (Microsoft. Corporation) and XLfit (idbs Ltd.)
# The aforementioned in mM, μM and nM are each means mmol/L, μmol/L and nmol/L, respectively.
# In tables, μM means μmol/L.
# Sequence of human P2X3 receptor (P56373 whole entry): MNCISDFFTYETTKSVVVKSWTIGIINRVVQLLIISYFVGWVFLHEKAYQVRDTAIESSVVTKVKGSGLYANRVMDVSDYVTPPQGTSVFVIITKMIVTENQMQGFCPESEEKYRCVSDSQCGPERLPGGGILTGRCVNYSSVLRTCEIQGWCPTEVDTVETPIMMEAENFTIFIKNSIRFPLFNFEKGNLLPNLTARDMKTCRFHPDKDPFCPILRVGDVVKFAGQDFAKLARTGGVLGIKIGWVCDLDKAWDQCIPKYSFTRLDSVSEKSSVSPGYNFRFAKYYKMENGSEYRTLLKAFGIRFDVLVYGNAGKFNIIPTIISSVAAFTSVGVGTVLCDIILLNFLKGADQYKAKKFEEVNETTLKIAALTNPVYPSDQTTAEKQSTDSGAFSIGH
row,Compound,IC50
1,CC(C)Oc1ccc(Nc2ncc(C(N)=O)c(=O)n2Cc2ccc(Cl)cc2)cc1F [I-258],47 nM
2,CC(C)Oc1ccc(Nc2ncc(C#N)c(=O)n2Cc2ccc(Cl)cc2)cc1F [I-259],436 nM
3,CCCC(=O)Nc1cnc(Nc2ccc(OC(C)C)c(F)c2)n(Cc2ccc(Cl)cc2)c1=O [I-260],15 nM
4,CCc1nc2ccc(Nc3ncc(NC(=O)C4CCOCC4)c(=O)n3Cc3ccc(Cl)cc3)cc2s1 [I-262],3 nM
5,Cc1nc2ccc(Nc3ncc(NC(=O)C4CCOCC4)c(=O)n3Cc3ccc(Cl)cc3)cc2s1 [I-264],4 nM
6,Cc1ccc(Oc2ccc(Nc3ncc(NC(=O)C4CCOCC4)c(=O)n3Cc3ccc(Cl)cc3)cc2)cn1 [I-265],1 nM
7,CC(C)Oc1ccc(Nc2ncc(C(=O)NNC=O)c(=O)n2Cc2ccc(Cl)cc2)cc1F [I-266],55 nM
8,CC(=O)OC(C)(C)C(=O)Nc1cnc(Nc2ccc(OC(C)C)c(F)c2)n(Cc2ccc(Cl)cc2)c1=O [I-267],25 nM
9,CC(C)Oc1ccc(Nc2ncc(NC(=O)C(C)(C)O)c(=O)n2Cc2ccc(Cl)cc2)cc1F [I-268],4 nM
10,CC(C)Oc1ccc(Nc2ncc(NC(=O)CCO)c(=O)n2Cc2ccc(Cl)cc2)cc1F [I-269],31 nM
11,CC(=O)N1CCC(C(=O)Nc2cnc(Nc3ccc(OC(C)C)c(F)c3)n(Cc3ccc(Cl)cc3)c2=O)CC1 [I-270],10 nM
12,CC(C)Oc1ccc(Nc2ncc(C(=O)NNC(=O)OC(C)(C)C)c(=O)n2Cc2ccc(Cl)cc2)cc1F [I-271],29 nM
13,CC(C)Oc1ccc(Nc2ncc(C(=O)NN)c(=O)n2Cc2ccc(Cl)cc2)cc1F [I-272],104 nM
14,COc1cc(C(=O)Nc2cnc(Nc3ccc(OC(C)C)c(F)c3)n(Cc3ccc(Cl)cc3)c2=O)ccn1 [I-273],95 nM
15,COc1ccc(C(=O)Nc2cnc(Nc3ccc(OC(C)C)c(F)c3)n(Cc3ccc(Cl)cc3)c2=O)cn1 [I-274],66 nM
16,CC(C)Oc1ccc(Nc2ncc(NC(=O)c3cc[nH]c(=O)c3)c(=O)n2Cc2ccc(Cl)cc2)cc1F [I-275],11 nM
17,CC(C)Oc1ccc(Nc2ncc(NC(=O)c3ccc(=O)[nH]c3)c(=O)n2Cc2ccc(Cl)cc2)cc1F [I-276],32 nM
18,CC(C)Oc1ccc(Nc2ncc(NC(N)=O)c(=O)n2Cc2ccc(Cl)cc2)cc1F [I-277],49 nM
19,CC(C)Oc1ccc(Nc2ncc(NC(=O)N3CCOCC3)c(=O)n2Cc2ccc(Cl)cc2)cc1F [I-278],16 nM
20,CC(C)Oc1ccc(Nc2ncc(NC(=O)c3ccn(C)c(=O)c3)c(=O)n2Cc2ccc(Cl)cc2)cc1F [I-279],139 nM
21,Cc1nc2ccc(Nc3ncc(C)c(=O)n3Cc3ccc(Cl)cc3)cc2s1 [I-280],237 nM
22,CCOC(=O)c1cn(Cc2ccc(Cl)cc2)c(Nc2ccc3nc(C)sc3c2)nc1=O [I-282],272 nM
23,CC(C)Oc1ccc(Nc2ncc(NC(=O)C3COC(C)(C)OC3)c(=O)n2Cc2ccc(Cl)cc2)cc1F [I-287],23 nM
24,CC(C)Oc1ccc(Nc2ncc(NC(=O)C(CO)CO)c(=O)n2Cc2ccc(Cl)cc2)cc1F [I-288],17 nM

row,Compound,IC50
1,CC(C)Oc1ccc(Nc2ncc(NC(=O)C(C)(C)C#N)c(=O)n2Cc2ccc(Cl)cc2)cc1F [I-290],23 nM
2,CC(=O)Nc1cnc(Nc2ccc(Oc3ccc(C)nc3)cc2)n(Cc2ccc(Cl)cc2)c1=O [I-291],43 nM
3,Cc1ccc(Oc2ccc(Nc3ncc(N)c(=O)n3Cc3ccc(Cl)cc3)cc2)cn1 [I-292],433 nM
4,CC(=O)OC(C)(C)C(=O)Nc1cnc(Nc2ccc(Oc3ccc(C)nc3)cc2)n(Cc2ccc(Cl)cc2)c1=O [I-293],14 nM
5,Cc1ccc(Oc2ccc(Nc3ncc(NC(=O)C4COC(C)(C)OC4)c(=O)n3Cc3ccc(Cl)cc3)cc2)cn1 [I-294],9 nM
6,Cc1ccc(Oc2ccc(Nc3ncc(NC(=O)C(C)(C)O)c(=O)n3Cc3ccc(Cl)cc3)cc2)cn1 [I-295],2 nM
7,Cc1ccc(Oc2ccc(Nc3ncc(NC(=O)C(CO)CO)c(=O)n3Cc3ccc(Cl)cc3)cc2)cn1 [I-296],7 nM
8,CC(=O)Nc1cnc(Nc2ccc3nc(C)sc3c2)n(Cc2ccc(Cl)cc2)c1=O [I-297],112 nM
9,Cc1ccc(Oc2ccc(Nc3ncc(NC(=O)C(CO)CO)c(=O)n3Cc3ccc(Cl)cc3)cc2)cn1 [I-298],8 nM
10,COCCCNC(=O)c1cn(Cc2ccc(Cl)cc2)c(Nc2ccc3nc(C)sc3c2)nc1=O [I-300],164 nM
11,Cc1nc2ccc(Nc3nc(=O)c(C(=O)NCCC#N)cn3Cc3ccc(Cl)cc3)cc2s1 [I-301],123 nM
12,CC(=O)N1CCC(NC(=O)c2cn(Cc3ccc(Cl)cc3)c(Nc3ccc4nc(C)sc4c3)nc2=O)CC1 [I-302],87 nM
13,COC(=O)c1cncc(Oc2ccc(Nc3ncc(NC(=O)C4CCOCC4)c(=O)n3Cc3ccc(Cl)cc3)cc2)c1 [I-304],2 nM
14,Cc1nc2ccc(Nc3ncc(Br)c(=O)n3Cc3ccc(Cl)cc3)cc2s1 [I-306],207 nM
15,Cc1nc2ccc(Nc3nc(=O)c(C(=O)NC(C)C)cn3Cc3ccc(Cl)cc3)cc2s1 [I-307],40 nM
16,Cc1nc2ccc(Nc3nc(=O)c(C(=O)NC4COC4)cn3Cc3ccc(Cl)cc3)cc2s1 [I-308],133 nM
17,Cc1nc2ccc(Nc3nc(=O)c(C(=O)NC4CC4)cn3Cc3ccc(Cl)cc3)cc2s1 [I-309],61 nM
18,Cc1nc2ccc(Nc3nc(=O)c(C(=O)NN(C)C)cn3Cc3ccc(Cl)cc3)cc2s1 [I-310],132 nM
19,O=C(Nc1cnc(Nc2ccc(Oc3cnc(Cl)c(F)c3)cc2)n(Cc2ccc(Cl)cc2)c1=O)C1CCOCC1 [I-311],4 nM
20,CSc1ccc(Cn2c(Nc3ccc4nc(C)sc4c3)ncc(NC(=O)C3CCOCC3)c2=O)cc1 [I-312],11 nM
21,CCn1c(=O)cc(Nc2ccc(Oc3cncc(C(=O)OC)c3)cc2)n(Cc2ccc(Cl)cc2)c1=O [I-314],35 nM
22,CCn1c(=O)cc(Nc2ccc(Oc3ccnc(C(=O)OC)c3)cc2)n(Cc2ccc(Cl)cc2)c1=O [I-316],9 nM
23,CCn1c(=O)cc(Nc2ccc(Oc3ccnc(C(=O)O)c3)cc2)n(Cc2ccc(Cl)cc2)c1=O [I-317],3 nM
24,Cc1nc2ccc(Nc3ncc(NC(=O)OC(C)(C)C)c(=O)n3Cc3ccc(Cl)cc3)cc2s1 [I-318],9 nM

row,Compound,IC50
1,Cc1nc2ccc(Nc3ncc(NC(=O)OCc4ccccc4)c(=O)n3Cc3ccc(Cl)cc3)cc2s1 [I-319],105 nM
2,CCC1(CC)C(=O)N/C(=N\c2ccc(OC(C)C)cc2)N(Cc2ccc(Cl)cc2)C1=O [I-327],867 nM
3,Cc1nc(Nc2ccc(OC(C)C)cc2)n(Cc2ccc(Cl)cc2)c(=O)c1Cc1ccccc1 [I-330],350 nM
4,CC(C)NC(=O)c1c(O)[nH]/c(=N\c2ccc(OC(C)C)cc2)n(Cc2ccc(Cl)cc2)c1=O [I-332],504 nM
5,"COC(=O)CCNC(=O)c1c(O)[nH]/c(=N\c2ccc(OC(C)C)cc2)n(Cc2ccc(Cl)cc2)c1=O [I-333, 1-(4-chlorobenzyl)-3-(2-methoxycarbonylethyl)carbamoyl-4-hydroxy-6-(4-isopropoxyphenylimino)-2,3-dihydro-pyrimidine-4-one]",115 nM
6,CCOC(=O)c1c(O)[nH]/c(=N\c2ccc(OC(C)C)cc2)n(Cc2ccc(Cl)cc2)c1=O [I-334],188 nM
7,"CC(=O)Nc1c(O)[nH]/c(=N\c2ccc(OC(C)C)cc2)n(Cc2ccc(Cl)cc2)c1=O [I-339, 1-(4-chlorobenzyl)-3-acetylamino-4-hydroxy-6-(4-isopropoxyphenylimino)-2,3-dihydro-pryimidine-4-one]",518 nM
8,CC(C)Oc1ccc(/N=c2\[nH]c(O)c(NC(=O)C(C)C)c(=O)n2Cc2ccc(Cl)cc2)cc1 [I-341],681 nM
9,Cc1cc(=O)n(Cc2ccc(Cl)cc2)c(Nc2ccc3nc(C)sc3c2)n1 [I-343],694 nM
10,CCOC(=O)c1c(C)nc(Nc2ccc3nc(C)sc3c2)n(Cc2ccc(Cl)cc2)c1=O [I-345],273 nM
11,Cc1nc2ccc(Nc3nc(C)c(C(N)=O)c(=O)n3Cc3ccc(Cl)cc3)cc2s1 [I-347],182 nM
12,Cc1nc2ccc(Nc3nc(C)c(NC(=O)OC(C)(C)C)c(=O)n3Cc3ccc(Cl)cc3)cc2s1 [I-348],105 nM
13,Cc1nc2ccc(Nc3nc(C)c(Br)c(=O)n3Cc3ccc(Cl)cc3)cc2s1 [I-349],280 nM
14,C=Cc1c(C)nc(Nc2ccc3nc(C)sc3c2)n(Cc2ccc(Cl)cc2)c1=O [I-350],385 nM
15,CCc1c(C)nc(Nc2ccc3nc(C)sc3c2)n(Cc2ccc(Cl)cc2)c1=O [I-351],146 nM
16,COC(=O)CCCn1c(=O)cc(Nc2ccc3nc(C)sc3c2)n(Cc2ccc(Cl)cc2)c1=O [I-352],24 nM
17,Cc1nc2ccc(Nc3cc(=O)n(CCOC4CCCCO4)c(=O)n3Cc3ccc(Cl)cc3)cc2s1 (stereo not shown) [I-353],9 nM
18,Cc1nc2ccc(Nc3cc(=O)n(CCO)c(=O)n3Cc3ccc(Cl)cc3)cc2s1 [I-355],57 nM
19,COC(=O)c1cccc(Oc2ccc(Nc3ncc(NC(=O)C4CCOCC4)c(=O)n3Cc3ccc(Cl)cc3)cc2)c1 [I-357],3 nM
20,CC(=O)OC(C)(C)C(=O)Nc1cnc(Nc2ccc3nc(C)sc3c2)n(Cc2ccc(Cl)cc2)c1=O [I-358],16 nM
21,Cc1nc2ccc(Nc3ncc(NC(=O)C(C)(C)O)c(=O)n3Cc3ccc(Cl)cc3)cc2s1 [I-360],3 nM
22,Cc1nc2ccc(Nc3ncc(NC(=O)C(CO)CO)c(=O)n3Cc3ccc(Cl)cc3)cc2s1 [I-361],10 nM
